Consider 88 molecules from a melting point compilation (Tetko et al.; mined from patent text by program, amines drawn as free bases though some values may be those of a salt).

Broadly, the melting point is the temperature of the solid-liquid transition. Molecule `COc1ccc(NC(=O)/C=C/c2ccc([N+](=O)[O-])c(F)c2)cc1[N+](=O)[O-]` yielded a melting point of 263 to 265 °C.

`CN1C(=O)C2C3CCC(C3)C2(c2cccc(Br)c2)C1=O` (stereo not drawn) gave a melting point of 105 to 107 °C.

Regarding `Cn1ncc(C(=O)N2CCC2)c1C(=O)Nc1ccn2nc(-c3cccc(F)c3)nc2c1`, the melting point is 232 to 236 °C.

In turn, `COc1cccc(NC(=O)c2cccc([N+](=O)[O-])c2)c1` yielded a melting point of 120 to 122 °C.

Molecule `O=C([C@@H]1CCCN1C(=O)CC1CCc2ccccc2C1)N1CCCC1` (stereo partly drawn) displayed a melting point of 104 to 106 °C.

In the case of `CCS(=O)c1cn(C)cc(-c2cccc(C(F)(F)F)c2)c1=O` (stereo not drawn), the melting point was 146 to 148 °C.

Turning to `CCOC(=O)C=Cc1ccccc1NC(=O)c1ccc(OCCCCc2ccccc2)cc1`, the melting point lay within 129 to 131 °C.

In turn, `O=C(O)CCCCCCN(Cc1ccccc1)C(=O)c1cn2c3c(cccc13)CCC2` showed a melting point of 45 to 47 °C.

Regarding `CC(C)(C)C(=O)OCOC(=O)COc1ccc(Cc2ccc(Cl)cc2)cc1`, the melting point was in the range of 54 to 55 °C.

The molecule `O=C(Cc1cccs1)Nc1cc(N2CC(c3ccccc3)OC2=O)ccn1` (stereo not drawn) gave a melting point of 109 to 110 °C.

With `O=C(C1CCCc2c1c1ccccc1n2Cc1ccccc1)N1CCCC1` (stereo not drawn), the melting point was in the range of 232 to 234 °C.

On to `O=S(=O)(CCO)Cc1ccc(CS(=O)(=O)CCO)cc1`, for which the melting point was 210 to 212 °C.

`CCNc1cc2ncnc(N3CCN(C(=O)Nc4ccc(Oc5ccccc5)cc4)CC3)c2cc1[N+](=O)[O-]`: the melting point lay in the range of 242 to 244 °C.

For `CC1(C)OCc2cc(CCNC(=O)C(F)(F)F)ccc2O1`, the melting point lay within 91 to 93 °C.

With `C#CC[C@]12C=CC(=O)C=C1CC[C@H]1[C@@H]3CCC(=O)[C@@]3(C)CC[C@@H]12`, the melting point is 200 to 201 °C.

Molecule `NC(=O)c1sc2nccc(N3CCC(c4ccccc4)CC3)c2c1N` had a melting point of 226 to 233 °C.

Molecule `CC(C)NC(=O)C(O)C(Oc1ccccc1)c1ccccc1` (stereo not drawn) showed a melting point of 166 to 168 °C.

Take `O=[N+]([O-])c1ccc2oc(-c3sccc3CN3CCOCC3)nc2c1`: the melting point fell in the range of 143 to 145 °C.

Turning to `O=C(O)COc1cccc2c1CCc1sc(S(=O)(=O)C(c3cccc(F)c3)c3cccc(F)c3)nc1-2`, the melting point fell in the range of 213 to 214 °C.

On to `O=C(NCc1ccccc1)OCC(=O)c1ccccc1`, for which the melting point lay in the range of 110 to 112 °C.

On to `COc1ccc(-n2nc(CCCO)cc2-c2ccc(Cl)cc2)cc1`, for which the melting point lay in the range of 87.5 to 88 °C.

As for `COC(=O)c1cccc(NC(=O)c2ccc(OC)c(N)c2)c1`, the melting point was 160 to 162 °C.

Turning to `Cc1ccc(C(=S)c2ccc3n2CCCC3C(=O)O)cc1` (stereo not drawn), the melting point was in the range of 174 to 175 °C.

On to `Brc1ccc2c(c1)c1cc(Br)ccc1n2-c1ccccc1`, for which the melting point fell in the range of 163 to 164 °C.

The molecule `CCCCCCCCCCCCCCCCCNC(=O)O[C@@H]1CCO[C@H]1CO` (relative stereo) gave a melting point of 77 to 78 °C.

With `COc1ccc(C2(C)Cc3cc(OCc4ccccc4)c(Cl)c(Cl)c3C2=O)cc1` (stereo not drawn), the melting point was in the range of 115 to 119 °C.

For the molecule `NC1=CC2=C(CC1)CCc1c2[nH]c(=O)c(=O)n1Cc1ccccc1`, the melting point came out at 290 °C.

The molecule `CSc1ncc(O)c(O)n1` gave a melting point of 213 to 215 °C.

`O=C1Cn2c(cc3ccccc32)C(=O)N1CCCCN1CCN(c2ncccn2)CC1` came in with a melting point of 237 to 239 °C.

In turn, `CCOc1ccccc1C1=NN(C(=O)c2cccnc2)CC1` came in with a melting point of 155 to 157 °C.

`Cn1c(COc2ccc(CC3SC(=O)N(C(c4ccccc4)(c4ccccc4)c4ccccc4)C3=O)cc2)nc2ccc(Sc3ccccc3)nc21` (stereo not drawn): the melting point was 90 to 95 °C.

With `Cc1cc2[nH]c3cc(Cl)ncc3c(=O)n2n1`, the melting point was greater than 300 °C.

Take `CC(=O)c1ccc(N(C(C)=O)c2ccccc2)cc1`: the melting point was in the range of 118 to 120 °C.

As for `CCOC(=O)C[C@@H](C)NC(=O)N[C@H]1CCN(c2ccc(C#N)cc2)C1=O`, the melting point was 178 to 179 °C.

The molecule `C=C=C[C@]12CCC(=O)C=C1C(=O)C[C@@H]1[C@@H]2CC[C@]2(C)C(=O)CC[C@@H]12` displayed a melting point of 187 to 190 °C.

As to `Cc1cccc(C(=O)O)c1-c1ccc(C(F)(F)F)cc1`, the melting point lay within 202 to 203 °C.

The molecule `O=C(Nc1ccc2scnc2c1C1CCN(C/C=C/c2ccc(Cl)cc2)CC1)c1ccnc(Cl)c1` showed a melting point of 99 to 103 °C.

Turning to `CC(=O)OCc1cc2cc(OCc3ccccc3)ccc2n1Cc1ccc(C(C)(C)C)cc1`, the melting point lay within 132 to 133 °C.

In turn, `CCN(CC)CCn1nc2c3c(c(CNS(C)(=O)=O)ccc31)Sc1ccccc1-2` returned a melting point of 120 to 125 °C.

For `NC(=O)NNC1=NC=Cc2ccccc2C1`, the melting point was 188 to 189 °C.

For the molecule `COc1cc2c(cc1Nc1ncc(Cl)c(N[C@H]3[C@@H](C(N)=O)[C@@H]4C=C[C@H]3C4)n1)CCN(CC(=O)N1CCCC1)CC2`, the melting point fell in the range of 126 to 145 °C.

Turning to `COc1ccc(Oc2cc(N)c(F)cc2C#N)cc1`, the melting point worked out at 135 °C.

Take `Cc1ccc([N+](=O)[O-])cc1CNC(=O)c1ccccc1`: the melting point lay within 134 to 137 °C.

The molecule `COc1ccccc1C1(O)C(O)CC(c2ccccc2)(c2ccccc2)C2CN(C(=O)Cc3ccccc3O)CC21` (stereo not drawn) showed a melting point of 188 to 190 °C.

With `COC(=O)C=C1CN=C(c2ccccc2F)c2cc(Cl)ccc2N1`, the melting point is 158 to 160 °C.

On to `O=C(OCCCl)C(O)c1ccccc1` (stereo not drawn), for which the melting point lay within 43 to 45 °C.

The molecule `O=C(Nc1nc(-c2ccco2)c(C(=O)C2CCOCC2)s1)c1ccco1` gave a melting point of 196 to 198 °C.

`COCC1COc2cc3ncnc(Nc4cccc(C(F)(F)F)c4)c3cc2O1` (stereo not drawn) yielded a melting point of 280 to 282 °C.

`CS(=O)(=O)Nc1nccc(Oc2ccc3c(C(=O)Nc4ccc(F)c(C(F)(F)F)c4)cccc3c2)n1` returned a melting point of 246 °C.

For `COc1ccc(CN(CCCNc2nccc(=O)[nH]2)c2ccccn2)cc1`, the melting point was in the range of 63 to 80 °C.

In turn, `CCN1CCc2sc3ncn(CCCl)c(=O)c3c2C1` returned a melting point of 94 to 96 °C.

As to `S=c1nc(-c2ccc(-c3ccccc3)cc2)[nH]n1Cc1ccccc1`, the melting point was in the range of 249 to 250 °C.

Take `CNc1c(C(=O)OC)c(C)nc2c1c1ccccc1n2C`: the melting point was 90 to 91 °C.

For `O=C1CC(c2ccccc2OCc2ccccc2)=Nc2ccc(N3CCOCC3)cc21`, the melting point lay within 281 to 283 °C.

In the case of `COc1cc(NC(=O)CCCCCN2CC(C)OC(C)C2)c2nccc(C)c2c1` (stereo not drawn), the melting point lay in the range of 87 to 90 °C.

On to `CCOC(=O)c1cnn(-c2ccc(OCCC(C)C)c(C#N)c2)c1`, for which the melting point lay within 125 to 126 °C.

As for `CCCc1c(OCc2cccc(C(=O)OC)c2)ccc(C(C)=O)c1O`, the melting point was 141 to 143 °C.

As to `NC(=O)c1sc2nccc(N3CCCN(c4ccc(Cl)nn4)CC3)c2c1N`, the melting point lay within 232 to 234 °C.

Molecule `CCOC(=O)c1ccc(OCc2nc(-c3ccco3)oc2C)c(Cl)c1` yielded a melting point of 145 to 146 °C.

Molecule `COc1ccc([C@@H]2O[C@@](O[Si](C)(C)C)(C(F)(F)F)[C@H](Cc3ccccc3)N2C(=O)OCc2ccccc2)cc1` came in with a melting point of 41 to 42 °C.

Take `COc1cc(C(F)(F)F)oc(=O)c1`: the melting point is 61 °C.

Take `N#Cc1cccc(C2=Nc3ccc(-c4ccc(-c5ccccc5)cc4)cc3NC(=O)C2)c1`: the melting point lay in the range of 251 to 253 °C.

Take `CC(C)S(=O)(=O)Nc1cc(C(=O)c2ccccc2)ccc1N`: the melting point is 150 to 152 °C.

In the case of `N#Cc1ccc(N2C(=O)N(CCCCO)C3(CCSCC3)C2=O)cc1C(F)(F)F`, the melting point lay within 139 to 140 °C.

In the case of `CN1CC(CN2CCN(c3ccccc3)CC2)OC1=O` (stereo not drawn), the melting point fell in the range of 110 to 112 °C.

In the case of `CCOC(=O)n1cc(F)c(N)nc1=O`, the melting point was 190 to 193 °C.

For `CC(C)(C)c1ccc(CSc2nc3cnccc3[nH]2)cc1`, the melting point lay in the range of 207 to 208 °C.

In turn, `CCNC(=O)c1ccc(N2CCN(Cc3cc4c(c(OCC)c3)OC(C)C(=O)N4)CC2)c(Cl)c1` (stereo not drawn) displayed a melting point of 187 to 199 °C.

Regarding `Cc1nc(N2CCN(Cc3ccccc3)C2=NC#N)sc1C(=O)NCc1ccccc1`, the melting point is 226 to 228 °C.

Molecule `O=C1c2ccccc2-c2c1c(N1CCN(c3ccccn3)CC1)nc1ccc(Br)cc21` displayed a melting point of 186 to 188 °C.

`CCOC(=O)c1oc2cc(Br)ccc2c1C` displayed a melting point of 55 to 56 °C.

Consider `CCCC(=O)C1=C(n2cccn2)CC(C2CCCSC2)CC1=O` (stereo not drawn), for which the melting point was determined as 127 °C.

For `CC1=C(c2cc(C)no2)C(=O)CCC1`, the melting point lay in the range of 104 to 105 °C.

Turning to `Brc1ccc(N2CCN(Cc3ccccc3)CC2)nc1`, the melting point amounted to 100 °C.

Molecule `COc1ccc(-c2cc(CBr)c(=O)n(Cc3ccc(F)cc3)n2)cc1F` returned a melting point of 120 to 125 °C.

Consider `O=c1c(OC(F)F)cn(-c2ccccc2F)nc1-c1ccnn1-c1ccccc1`, for which the melting point was in the range of 109 to 114 °C.

`CCCC(=O)C(=CNc1ccccc1OC)C(=O)OCC` gave a melting point of 74 to 76 °C.

`O=[N+]([O-])c1cn(C2OC(CO)C(O)C2O)nn1` (stereo not drawn): the melting point lay in the range of 172 to 174 °C.

The molecule `CCCOc1cc(C(=O)O)ccc1-c1ccc(-c2ccccc2)c(-c2ccc3c(c2)C(C)(C)CCC3(C)C)c1` came in with a melting point of 216 to 218 °C.

With `CCOC(=O)OC1=C(c2cc(C)ccc2C)C(=O)NC1CC1CCS(=NC#N)CC1` (stereo not drawn), the melting point fell in the range of 103 to 105 °C.

The molecule `N/C(=C1/Sc2ccccc2C1=O)c1ccccc1N` showed a melting point of 186 to 187 °C.

As for `CCCCCCCS(=O)(=O)Oc1c(I)cc(I)cc1I`, the melting point is 78 to 80 °C.

On to `CC(C)n1nc(-c2sc(NC(=O)CCNCc3ccccn3)nc2-c2ccccc2)ccc1=O`, for which the melting point lay within 200 to 201 °C.

Turning to `CCCC1=NN(c2ccc([N+](=O)[O-])cc2)C(=O)C1=CNc1ccccc1CC`, the melting point came to 211 °C.

On to `CCOC(=O)C(=O)Nc1c([N+](=O)[O-])ccc2ncccc12`, for which the melting point was found to be 181 °C.

As for `Cc1ccc(S(=O)(=O)C(CCCCCOc2ccc(Cl)cc2)C(=O)O)cc1` (stereo not drawn), the melting point fell in the range of 88 to 90 °C.

In turn, `CSC1=NC(C)(C)CCC(C)(C)N1` displayed a melting point of 200 to 205 °C.

`CC(=O)S[C@@H]1CCNC1=S` registered a melting point of 98 to 100 °C.
